According to paper PMC10094048, “Synthesis and Anticancer Evaluation of 4-Anilinoquinolinylchalcone Derivatives” (International Journal of Molecular Sciences, 2023):
Counter-ions that a name gives are not always drawn. Like-named read-outs stand apart in the source and are kept apart here. Blank lines part the entries; values can stand above or below the molecule they belong to.

Assays:
[1] = tested on: rheumatoid arthritis fibroblast-like synoviocytes; settings: cited from earlier work
[2] = tested on: human retinoblastoma Y79 cell; design: method as in PMID 26564153; settings: 48 h XTT assay; read-out: IC50 Y79 cell proliferation; cited from earlier work
[3] = cited from earlier work
retinoblastoma cells = tested on: retinoblastoma cells; design: method as in PMID 26564153; settings: cited from earlier work
MRC-5 = assay: XTT antiproliferative assay, normal lung cells MRC-5; type: cell-based; settings: Homo sapiens, MRC5, 72 h, mean ± SD
Method: (§1) All the synthesized 4-anilinoquinolinylchalcone derivatives were evaluated in vitro against two cancer cells (Huh-7 and MDA-MB-231) and a non-cancer normal fibroblast lung cell line (MRC-5) using an XTT (sodium 3′-[1-(phenylamino-carbonyl)-3,4-tetrazolium}-bis(4-methoxy-6-nitro)benzene sulfonic acid hydrate) assay. The concentration that inhibited the growth of 50% of cells (IC50) was determined from the linear portion of the curve by calculating the concentration of the tested agent that reduced absorbance in treated cells, compared to control cells, by 50%. The IC50 results of these 4-anilinoquinolinylchalcone derivatives are summarized (Table 1). […] Thus, 4a was selected as a lead compound for further mechanism studies.
(§2) Cancer cells (Huh-7, MDA-MB-231) and normal lung cells (MRC-5) were purchased from Bioresources Collection and Research Center, Taiwan. Cells were maintained in the same standard medium, grown as a monolayer in DMEM (Gibco, Miami, FL, USA), and supplemented with 10% fetal bovine serum (FBS) and antibiotics, i.e., 100 IU/mL penicillin, 0.1 mg/mL streptomycin and 0.25 μg/mL amphotericin. The culture was maintained at 37 °C with 5% CO2 in a humidified atmosphere. Cells (5 × 10^3 cells/well) were treated with tested compounds for 72 h in the medium containing 10% FBS. Cell viability was quantitated with the use of sodium 3′-[1-(phenylamino-carbonyl)-3,4-tetrazolium}-bis(4-methoxy-6-nitro)benzene sulfonic acid hydrate (XTT) colorimetric assay (Biological Industries, Beit-Haemek, Israel). XTT labeling reagent (1 mg/mL) was mixed with electron-coupling reagent, following the manufacturer’s instructions, and 50 μL of the mixture was added directly to the cells. The plates were further incubated at 37 °C for 4 h. Color was measured spectrophotometrically in a microtiter plate reader at 492 nm and used as a relative measurement of viable cell numbers. After drug treatment, the viable cell number was compared to the solvent and untreated control cell number. This information was used to determine the percent of control growth as (Abtreated/Abcontrol) × 100, where Ab represents the mean absorbance (n = 3). The concentration that killed 50% of cells (IC50) was determined from the linear portion of the curve by calculating the concentration of the agent that reduced the absorbance in treated cells, compared to control cells, by 50%.

MDA-MB-231 [4] = tested on: MDA-MB-231; design: method as in PMID 23237975; settings: value marked with footnote c; cited from earlier work
H1299 = tested on: H1299; design: method as in PMID 23237975; settings: read-out: IC50 against the growth of H1299; cited from earlier work
SKBR-3 = tested on: SKBR-3; design: method as in PMID 23237975; settings: read-out: IC50 against the growth of SKBR-3; cited from earlier work
Huh-7 [5] = assay: XTT antiproliferative assay, Huh-7; type: cell-based; settings: Homo sapiens, 72 h, mean ± SD
Method: as §1, §2

MDA-MB-231 [6] = assay: XTT antiproliferative assay, MDA-MB-231; type: cell-based; settings: Homo sapiens, 72 h, mean ± SD
Method: as §1, §2

[7] = tested on: breast cancer MDA-MB-231 cells; assay: Cellular ATP assay (ATPlite luminescence); type: cell-based, human; settings: MDA-MB-231, 24 h
Method: ATP levels are another cell viability indicator [31, 32, 33]. To further confirm the inhibition of the cell proliferative ability of compound 4a, the cellular ATP levels of breast cancer MDA-MB-231 cells were assessed (Figure 2).
Cellular ATP was determined using the ATPlite luminescence reagent (PerkinElmer Life Sciences, Boston, MA, USA). According to the user instruction, the cell lysate of treated cells was reacted with ATPlite substrate for 5 min in the dark. Finally, the luminescence was detected by a luminometer (Berthold Technologies GmbH & Co., Bad Wildbad, Germany).

[8] = tested on: breast cancer MDA-MB-231 cells; assay: Annexin V/7AAD apoptosis assay (flow cytometry); type: cell-based, human; settings: MDA-MB-231, 24 h, 5 and 10 μM versus control and 1 μM
Method: To examine the apoptosis-inducing ability of compound 4a, the annexin V/7-aminoactinomycin D (7-AAD) change in breast cancer MDA-MB-231 cells was assessed. […] Compound 4a, consisting of both versatile quinoline and chalcone moieties, was also active in inducing cancer cell apoptosis.
Annexin V/7AAD flow cytometry was a common method for detecting apoptosis. The commercial product containing annexin V-FITC (1:1000) and 7AAD (1 μg/mL) (Strong Biotech; Taipei, Taiwan) was applied to stain drug-treated cells for 1 h. Finally, these stained cells were conducted with flow cytometry (Guava easyCyte, Luminex, TX, USA).

[9] = tested on: breast cancer MDA-MB-231 cells; assay: ROS assay (H2DCFDA flow cytometry); type: cell-based, human; settings: MDA-MB-231, 24 h
Method: To evaluate the ROS-inducing ability of compound 4a, the flow cytometry-based ROS detection of breast cancer MDA-MB-231 cells was conducted.
The oxidative stress indicator, such as ROS, was selected to assess the impact of drug treatment on the change in oxidative stress. According to the manufacturer’s instructions, the ROS reacting probe 2′,7′-dichlorodihydrofluorescein diacetate (H2DCFDA) (Sigma-Aldrich) was applied to drug-treated cells. Finally, these stained cells were conducted with flow cytometry.

[10] = tested on: breast cancer MDA-MB-231 cells; assay: Caspase 3/7 luminescence assay; type: cell-based, human; settings: for caspase 3/7 activation: 24 h
Method: Using the caspase 3/7 luminescence assay, the modulating ability of breast cancer MDA-MB-231 cells on caspase 3/7 signaling with compound 4a was evaluated. […] Moreover, this caspase 3/7 activation with compound 4a was suppressed by NAC pretreatment.
Caspase 3/7 activation is the essential process for apoptosis, which was measured by the caspase-Glo® 3/7 assay (Promega; Madison, WI, USA), and its signal was read and recorded by a Luminometer (Berthold Technologies GmbH & Co., Bad Wildbad, Germany). The role of the induction of ROS affecting caspase 3/7 activity in drug-treated cells was evaluated by the 1 h pretreatment of 10 mM NAC [45, 49, 50].

[11] = tested on: non-small-cell lung A549 cancer cells; settings: 48 h trypan blue exclusion assay; read-out: IC50 antiproliferation A549; cited from earlier work
MDA-MB-231 cell line = tested on: MDA-MB-231 cell line; design: method as in PMID 31234033; settings: after 24 h of treatment; read-out: IC50 cytotoxicity on MDA-MB-231; cited from earlier work
Huh-7 [12] = tested on: Huh-7; design: method as in PMID 31234033; settings: Chen et al.; cited from earlier work
HepG2 = tested on: HepG2; design: method as in PMID 31234033; settings: Chen et al.; cited from earlier work
HA22T = tested on: HA22T; design: method as in PMID 31234033; settings: Chen et al.; cited from earlier work

melting point: 165 to 166 °C
Structure (SMILES): COc1cccc(COc2ccc(Nc3cc(/C=C/C(=O)c4ccc(F)cc4)nc4ccccc34)cc2)c1 (as salt: salt) [Compound 5f, (E)-1-(4-Fluorophenyl)-3-{4-{{4-[(3-methoxybenzyl)oxy]phenyl}amino}quinolin-2-yl}prop-2-en-1-one]

melting point: 179 to 180 °C
Structure (SMILES): O=C(/C=C/c1cc(Nc2ccc(OCc3ccc(Cl)cc3)cc2)c2ccccc2n1)c1ccc(F)cc1 (as salt: salt) [Compound 5g, (E)-3-{4-{{4-[(4-Chlorobenzyl)oxy]phenyl}amino}quinolin-2-yl}-1-(4-fluorophenyl)prop-2-en-1-one]

melting point: 254 to 255 °C
Structure (SMILES): O=C(/C=C/c1cc(Nc2ccc(OCc3ccc(F)cc3)cc2)c2ccccc2n1)c1ccc(F)cc1 (as salt: salt) [Compound 5h, (E)-3-{4-{{4-[(4-Fluorobenzyl)oxy]phenyl}amino}quinolin-2-yl}-1-(4-fluorophenyl)prop-2-en-1-one]

IC50 (Huh-7 [5]): 1.47 ± 0.07 µM | IC50 (MDA-MB-231 [6]): 0.11 ± 0.07 µM
Structure (SMILES): COc1ccc(C(=O)/C=C/c2cc(Nc3ccc(OCc4ccccc4)cc3)c3ccccc3n2)cc1 [Compound 4a, (E)-3-{4-{[4-(Benzyloxy)phenyl]amino}quinolin-2-yl}-1-(4-methoxyphenyl)prop-2-en-1-one]
IC50 (MRC-5): > 20 µM | cellular ATP levels [7]: dose-responsive downregulation of ATP | annexin V/7AAD apoptosis [8]: more significant apoptosis | ROS induction [9]: dose-responsive induction of ROS | caspase 3/7 activation ([10]; MDA-MB-231, 1 μM): inactive | caspase 3/7 activation ([10]; MDA-MB-231, 5 and 10 μM): significant caspase 3/7 activation | caspase 3/7 activation after NAC pretreatment ([10]; MDA-MB-231, 1 h pretreatment of 10 mM NAC, then 4a 24 h): suppressed

More lines, now with the values behind:

Structure (SMILES): COc1cc(/C=C/C(=O)c2ccc3ccccc3c2O)cc(OC)c1 [(E)-3-(3,5-dimethoxyphenyl)-1-(1-hydroxynaphthalen-2-yl) prop-2-en-1-one]
ROS burst [1]: evoke ROS burst

Structure (SMILES): O=C1c2cc(OCCN3CCCC3)ccc2-c2c(-c3ccc(OCCN4CCCC4)cc3)nc3ccc(OCCN4CCCC4)cc3c21 [BPIQ, 2,9-bis [2-(pyrrolidin-1-yl)ethoxy]-6-{4-[2-(pyrrolidin-1-yl)ethoxy]phenyl}-11H-indeno[1,2-c]quinolin-11-one]
IC50 [2]: 13.6 µM | apoptosis induction [3]: apoptosis induction | ROS production (retinoblastoma cells): induces ROS production

Structure (SMILES): COc1ccc(-c2cc3ccccc3nc2/C=C/C(=O)c2ccccc2)cc1 [Compound 1, (E)-3-[3-(4-methoxyphenyl)quinolin-2-yl]-1-phenylprop-2-en-1-one]
IC50 (MRC-5): 0.66 ± 0.06 µM | IC50 (MDA-MB-231 [4]): 0.86 ± 0.07 µM | IC50 (H1299): 1.41 µM | IC50 (SKBR-3): 0.7 µM

Structure (SMILES): CN(C)CCCOc1ccc(-c2nc3ccc(F)cc3c3c2-c2ccc(OCCCN(C)C)cc2C3=O)cc1 [DFIQ]
IC50 [11]: 3.53 µM

Structure (SMILES): CS(=O)(=O)CCNCc1ccc(-c2ccc3ncnc(Nc4ccc(OCc5cccc(F)c5)c(Cl)c4)c3c2)o1 [Lapatinib]
IC50 (Huh-7 [5]): 12.5 ± 0.28 µM | IC50 (MDA-MB-231 [6]): 12.8 ± 0.91 µM | IC50 (MRC-5): > 20 µM | IC50 (MDA-MB-231 cell line): 32.5 µM | IC50 (Huh-7 [12]): 2.11 µM | IC50 (HepG2): 3.42 µM | IC50 (HA22T): 4.85 µM
